Tested on: 415267-285-R-J2-PDC complex spheroid viability
Test: Anticancer human tumor 415267-285-R-J2-PDC patient-derived breast carcinoma cell line growth inhibition [POLQ]
Details: for IC50: curve of first compound; for viability, T/C: stronger effect = lower value
Method: Multicellular complex tumor spheroid response to Polymerase (POL) inhibitors (novobiocin, ART-558, RP6685) in combination with a variety of drugs and investigational agents in selected tumor cell lines
The POL inhibitors (novobiocin, ART-558, and RP6685) were evaluated both individually and in combination with standard of care and investigational anticancer small molecules within a complex spheroid model of solid tumors. . Complex spheroids include a stromal component modeled by human endothelial cells (HUVEC) and fibroblasts modeled by human mesenchymal stem cells (MSCs). The concentration ranges selected for each drug and investigational agent were based upon clinically achievable concentrations if the clinical Cmax of the agent was known.
Compounds. The drugs and investigational agents: novobiocin (NSC847541), ART-558 (NSC835418), RP-6685 (NSC848927), peposertib (NSC802822), ceralasertib (NSC780249), elimusertib (NSC800525), camonsertib (NSC841442), AZD-1390 (NSC803789), olaparib (NSC753686), talazoparib (NSC767125), rucaparib (NSC756644), sotorasib (NSC818433), MRTX-1133 (NSC836407), SN-38 (NSC673596), topotecan (NSC609699), epotoside (NSC141540), doxorubicin (NSC123127), gemcitabine (NSC613327), 5-fluorouracil (NSC19893), paclitaxel (NSC125973), vemurafenib (NSC761431), MSA-2 (NSC828583), SN-011 (NSC837082), adavosertib (NSC754352), prexasertib (NSC758257), carboplatin (NSC241240) and oxaliplatin (NSC266046), were obtained from the National Cancer Institute (NCI) Developmental Therapeutics Program Chemical Repository (21). The FDA-approved anticancer drug set is available from the Developmental Therapeutics Program at https://dtp.cancer.gov/organization/dscb/obtaining/. […] The stock solutions were prepared in dimethyl sulfoxide (DMSO, Sigma-Aldrich, St. Louis, MO, cat. D2650), except for the platinum compounds which were prepared in saline (Quality Biological, Gaithersburg, MD, cat. 114-055-101), at 800-fold the tested concentration and stored at -70 degrees C prior to their use. All drugs and investigational agents were tested over a range starting from a high concentration at or near the clinical Cmax and decreasing in half-log increments. If the clinical Cmax for an agent had not been determined, the highest concentration tested was 10 microM, except for SN-38, which was tested at a high concentration of 1 microM.
Cell Culture. All cells were maintained in an incubator at 37 degrees C and 5% CO2 with 95% humidity. The PDC lines were cultured according to standard operating procedures established by the NCI PDMR (https://pdmr.cancer.gov). Table 3 of the manuscript, lists the cell lines along with the number of the three cell types plated to form the mct-spheroids and media for tumor cell growth. After thawing, all PDC lines, except 997537-175-T-J1-PDC and 415267-285-R-J2-PDC, were cultured in Matrigel-coated flasks prepared with a working solution of 1X Ham's F-12 nutrient mix, without supplementation (Thermo Fisher Scientific, cat. 11765054), 100 U/mL penicillin-streptomycin (Thermo Fisher Scientific, cat. 15140122), and 2.5% Matrigel (Corning Inc., Corning, NY, cat. 354248) for the first three passages. The two PDC lines 997537-175-T-J1-PDC and 415267-285-R-J2-PDC were cultured on uncoated flasks. The 857933-349-R-J2-PDC line was cultured in 6C/Colon 1B media containing advanced DMEM/F-12 (Thermo Fisher Scientific, cat. 12634028), 10 mM HEPES (Thermo Fisher Scientific, cat. 15630080), 1X GlutaMAX supplement (Thermo Fisher Scientific, cat. 35050061), 0.1 mg/mL primocin (InvivoGen, San Diego, CA, cat. ant-pm-2), 10% defined fetal bovine serum, heat inactivated (HyClone Laboratories Inc., Logan, UT, cat. SH30070.03HI), 50% L-WRN conditioned media (ATCC, cat. CRL-3276), 1.25 mM N-Acetyl-L-cysteine (Sigma-Aldrich, cat. A9165), 10 mM nicotinamide (Sigma-Aldrich, cat. N0636), 1X B-27 supplement (Thermo Fisher Scientific, cat. 17504044), 1X N-2 supplement (Thermo Fisher Scientific, cat. […]

[1] = second compound 0.0316 µM, first compound 0.0316 µM
[2] = second compound 0.0316 µM, first compound 0.1 µM
[3] = second compound 0.0316 µM, first compound 0.316 µM
[4] = second compound 0.0316 µM, first compound 1 µM
[5] = second compound 0.0316 µM, first compound 3.16 µM
[6] = second compound 0.0316 µM, first compound 10 µM
[7] = second compound 0.1 µM, first compound 0.0316 µM
[8] = second compound 0.1 µM, first compound 0.1 µM
[9] = second compound 0.1 µM, first compound 0.316 µM
[10] = second compound 0.1 µM, first compound 1 µM
[11] = second compound 0.1 µM, first compound 3.16 µM
[12] = second compound 0.1 µM, first compound 10 µM
[13] = second compound 0.316 µM, first compound 0.0316 µM
[14] = second compound 0.316 µM, first compound 0.1 µM
[15] = second compound 0.316 µM, first compound 0.316 µM
[16] = second compound 0.316 µM, first compound 1 µM
[17] = second compound 0.316 µM, first compound 3.16 µM
[18] = second compound 0.316 µM, first compound 10 µM
[19] = second compound 1 µM, first compound 0.0316 µM
[20] = second compound 1 µM, first compound 0.1 µM
[21] = second compound 1 µM, first compound 0.316 µM
[22] = second compound 1 µM, first compound 1 µM
[23] = second compound 1 µM, first compound 3.16 µM
[24] = second compound 1 µM, first compound 10 µM
[25] = second compound 3.16 µM, first compound 0.0316 µM
[26] = second compound 3.16 µM, first compound 0.1 µM
[27] = second compound 3.16 µM, first compound 0.316 µM
[28] = second compound 3.16 µM, first compound 1 µM
[29] = second compound 3.16 µM, first compound 3.16 µM
[30] = second compound 3.16 µM, first compound 10 µM
[31] = second compound 10 µM, first compound 0.0316 µM
[32] = second compound 10 µM, first compound 0.1 µM
[33] = second compound 10 µM, first compound 0.316 µM
[34] = second compound 10 µM, first compound 1 µM
[35] = second compound 10 µM, first compound 3.16 µM
[36] = second compound 10 µM, first compound 10 µM
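Further: spheroids exposed to compounds for one week before readout.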
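Wherever viability, T/C is given: luminescence used as stand-in measure of viable cells; 100% = DMSO vehicle control viability.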

## CCc1cc2c(N3CCc4c(cc(Cn5ccnc5)cc4-c4cn(C)nc4C(F)(F)F)C3=O)ccnc2c(OC)n1 + Nc1ccc(C#CCN(C(=O)Cc2ncc(C(F)(F)F)cc2C(F)(F)F)c2ccc(F)cc2)nn1
Second compound 0.0316 µM
  IC50: > 10 µM
Second compound 0.1 µM
  IC50: > 10 µM
Second compound 0.316 µM
  IC50: > 10 µM
Second compound 1 µM
  IC50: > 10 µM
Second compound 3.16 µM
  IC50: > 10 µM
Second compound 10 µM
  IC50: > 10 µM
[1]
  viability, T/C: 95.8%
[2]
  viability, T/C: 92.1%
[3]
  viability, T/C: 78.2%
[4]
  viability, T/C: 87.2%
[5]
  viability, T/C: 89.7%
[6]
  viability, T/C: 70.8%
[7]
  viability, T/C: 94.3%
[8]
  viability, T/C: 88.4%
[9]
  viability, T/C: 79.6%
[10]
  viability, T/C: 85.3%
[11]
  viability, T/C: 92.9%
[12]
  viability, T/C: 68.1%
[13]
  viability, T/C: 94.2%
[14]
  viability, T/C: 90.7%
[15]
  viability, T/C: 75.7%
[16]
  viability, T/C: 84.1%
[17]
  viability, T/C: 86.4%
[18]
  viability, T/C: 71.4%
[19]
  viability, T/C: 85.9%
[20]
  viability, T/C: 96%
[21]
  viability, T/C: 81.8%
[22]
  viability, T/C: 82.1%
[23]
  viability, T/C: 87.8%
[24]
  viability, T/C: 70.7%
[25]
  viability, T/C: 90.4%
[26]
  viability, T/C: 87.3%
[27]
  viability, T/C: 78.8%
[28]
  viability, T/C: 88.8%
[29]
  viability, T/C: 78.2%
[30]
  viability, T/C: 73.3%
[31]
  viability, T/C: 94.9%
[32]
  viability, T/C: 83.8%
[33]
  viability, T/C: 90.4%
[34]
  viability, T/C: 87.9%
[35]
  viability, T/C: 77.5%
[36]
  viability, T/C: 68.2%

## COc1cc2cc(C(=O)CCC(=O)O)sc2cc1OC + Nc1ccc(C#CCN(C(=O)Cc2ncc(C(F)(F)F)cc2C(F)(F)F)c2ccc(F)cc2)nn1
Second compound 0.0316 µM
  IC50: > 10 µM
Second compound 0.1 µM
  IC50: > 10 µM
Second compound 0.316 µM
  IC50: > 10 µM
Second compound 1 µM
  IC50: > 10 µM
Second compound 3.16 µM
  IC50: > 10 µM
Second compound 10 µM
  IC50: > 10 µM
[1]
  viability, T/C: 108%
[2]
  viability, T/C: 95.4%
[3]
  viability, T/C: 93.7%
[4]
  viability, T/C: 97.3%
[5]
  viability, T/C: 93.8%
[6]
  viability, T/C: 97.3%
[7]
  viability, T/C: 111%
[8]
  viability, T/C: 105%
[9]
  viability, T/C: 94.2%
[10]
  viability, T/C: 98.2%
[11]
  viability, T/C: 92.5%
[12]
  viability, T/C: 95.1%
[13]
  viability, T/C: 111%
[14]
  viability, T/C: 103%
[15]
  viability, T/C: 91.8%
[16]
  viability, T/C: 89.9%
[17]
  viability, T/C: 98.9%
[18]
  viability, T/C: 85.9%
[19]
  viability, T/C: 103%
[20]
  viability, T/C: 88.9%
[21]
  viability, T/C: 96.6%
[22]
  viability, T/C: 102%
[23]
  viability, T/C: 96.5%
[24]
  viability, T/C: 91.2%
[25]
  viability, T/C: 105%
[26]
  viability, T/C: 92%
[27]
  viability, T/C: 101%
[28]
  viability, T/C: 98.9%
[29]
  viability, T/C: 94.3%
[30]
  viability, T/C: 109%
[31]
  viability, T/C: 101%
[32]
  viability, T/C: 97.4%
[33]
  viability, T/C: 100%
[34]
  viability, T/C: 106%
[35]
  viability, T/C: 97.9%
[36]
  viability, T/C: 96.5%

Source: PubChem BioAssay AID1963847 (Molecular Pharmacology Branch, DTP, NCI, 2024)
